We go through four compounds from patent US20110039825A1, “LIGANDS OF ALPHA-ADRENOCEPTORS, DOPAMINE, HISTAMINE, IMIDAZOLINE AND SEROTONIN RECEPTORS AND THEIR USE” (Alla Chem, LLC, priority 2007, published 2011).

A word on the IC50: it is the point on the concentration scale where inhibition reaches its midpoint. By Ki is commonly meant a dissociation constant, usually derived from enzyme kinetics or from competition with a known ligand. What is called inhibition is the change of the read-out against control, counted positive when it falls.

Experiment [1] deals with T1, recombinant human 5-HT2B receptor (Homo sapiens, UniProt P41595).
T1 construct: expressed in transfected cells; host or cells: CHO-K1
The experiment can be described thus: radioligand binding to serotonin receptor 5-HT2B ([3H] Lysergic acid diethylamide). Particulars: for 5-HT2B % inhibition: 10 μM ligand.
Method: Screening of the disclosed compounds for potential ability to interact with serotonin receptor 5-HT2A is carried out by method of radioligand binding. For this purpose membrane species are prepared from CHO-K1 cells comprising recombinant human 5-HT2B receptor by homogenization of recombinant cells in glass homogenizer with the subsequent separation of plasmatic membranes from cell nuclei, mitochondrias and cell wreckages by differential centrifugation. […] After incubation the samples are filtered in vacuo on glass-microfiber filters G/F (Millipor, USA), filters are washed three times with cold solution of medium and radioactivity is measured by scintillation counter MicroBeta 340 (Perkin Elmer, USA). […] Ketanserin is used as positive control. The tested compounds' binding to the receptor is determined by their ability to displace the radioligand and is expressed in percent of displacement (% I). Values of % I are calculated according to the following equation:
wherein: TA—is the overall radioactivity in the presence of radioligand only, CA—is the radioactivity in the presence of radioligand and tested compound and NA—is the radioactivity in the presence of radioligand and Serotonin (10 μM).

The target of a further experiment is T2, recombinant human 5-HT1A (Homo sapiens, UniProt P08908).
T2 construct: expressed in transfected cells; host or cells: CHO
T2 sequence (P08908 1-422): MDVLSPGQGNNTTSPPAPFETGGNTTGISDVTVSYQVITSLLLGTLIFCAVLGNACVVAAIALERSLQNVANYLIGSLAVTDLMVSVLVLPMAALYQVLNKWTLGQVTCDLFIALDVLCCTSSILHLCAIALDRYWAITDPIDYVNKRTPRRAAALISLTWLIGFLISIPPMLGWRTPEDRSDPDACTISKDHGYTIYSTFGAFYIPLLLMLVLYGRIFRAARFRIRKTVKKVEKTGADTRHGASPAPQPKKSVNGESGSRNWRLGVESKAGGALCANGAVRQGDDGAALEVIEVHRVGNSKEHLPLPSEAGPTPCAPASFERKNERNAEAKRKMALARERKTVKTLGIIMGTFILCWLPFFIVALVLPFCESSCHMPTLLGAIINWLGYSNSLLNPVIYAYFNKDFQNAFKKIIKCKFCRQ
Nature of the experiment: radioligand binding to serotonin receptor 5-HT1A ([3H] 8-OH-DPAT). As to conditions: for 5-HT1A % inhibition: 10 μM ligand; for inhibition at 1 µM: ligand concentration 1 μM. The source says:
J Pharmacol Exp Ther. 306(1): 301-309, 2003]. […] Metergoline is used as positive control.

A further experiment concerns imidazoline receptor I2. Nature of the experiment: radioligand binding to imidazoline receptor I2 ([3H] Idazoxan). On the set-up: species or system rat. Particulars: 10 μM ligand. As for the experimental part:
Determination of investigated compounds' binding to imidazoline I2 receptor is carried out according to the method described in [Brown C M, MacKinnon A C, McGrath J C, Spedding M and Kilpatrick A T, a2-Adrenoceptor subtypes and imidazoline-like binding in the rat brain. Br J. Pharmacol. 99:803-809, 1990]. […] Idazoxan is used as positive control.

Experiment [2] deals with T3, recombinant human 5-HT2A receptor (Homo sapiens, UniProt P28223).
T3 construct: expressed in transfected cells; host or cells: CHO-K1
Nature of the experiment: radioligand binding to serotonin receptor 5-HT2A ([3H] Ketanserin). As to conditions: 10 μM ligand. As for the experimental part: 9-C. […] J. Neurochem. […] Ketanserin is used as positive control. […] Values of % I is calculated according to the following equation: […]

A further experiment deals with T4, human 5-HT7 receptor (Homo sapiens, UniProt P34969).
T4 construct: expressed in transfected cells; host or cells: CHO
Nature of the experiment: radioligand binding to serotonin receptor 5-HT7 ([3H] Lysergic acid diethylamide). As to conditions: 10 μM ligand. The source says:
For this purpose sDNA of human 5-HT7 receptor is expressed in CHO cells as it was described in [Shen Y, Monsma F J Jr, Metcalf M A, Jose P A, Hamblin M W, and Sibley DR. […] J. Biol. Chem. 1993, 268, 18200-18204]. […] J. Pharmacol. Exp. Ther. 1994, 268:1403-1410]. […] Methiothepin is used as positive control.

Experiment [3] deals with T5, recombinant human 5-HT2C receptor (Homo sapiens, UniProt P28335).
T5 construct: expressed in transfected cells; host or cells: CHO-K1
T5 sequence (P28335 33-458): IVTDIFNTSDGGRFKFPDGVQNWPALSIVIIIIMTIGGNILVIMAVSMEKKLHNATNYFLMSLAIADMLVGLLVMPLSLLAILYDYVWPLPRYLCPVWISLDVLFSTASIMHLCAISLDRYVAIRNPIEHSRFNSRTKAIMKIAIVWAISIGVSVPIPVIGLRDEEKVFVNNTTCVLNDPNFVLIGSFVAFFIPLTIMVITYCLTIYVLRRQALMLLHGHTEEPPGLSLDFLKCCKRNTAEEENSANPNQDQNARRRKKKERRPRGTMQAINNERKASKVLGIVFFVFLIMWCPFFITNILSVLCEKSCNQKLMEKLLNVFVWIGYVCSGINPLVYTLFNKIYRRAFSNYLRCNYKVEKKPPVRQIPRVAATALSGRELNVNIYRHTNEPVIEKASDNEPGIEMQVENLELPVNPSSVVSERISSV
The experiment can be described thus: radioligand binding to serotonin receptor 5-HT2C ([3H] Mesulergine). The source says: J. Neurochem. 69: 1449-1458, 1997]. […] SB242084 is used as positive control.

For experiment [4], the target named is T6, recombinant human 5-HT6 receptor (Homo sapiens, UniProt P50406).
T6 construct: expressed in transfected cells; host or cells: HeLa
The experiment can be described thus: radioligand binding to serotonin receptor 5-HT6 ([3H] Lysergic acid diethylamide). Particulars: ligand concentration 1 μM; read-out: 5-HT6 % inhibition. The source says: Mol. Pharmacol. 43:320-327, 1993]. […] Methiothepin is used as positive control.

Another experiment has as its target T7, adrenergic receptor α1A (Rattus norvegicus, UniProt P43140).
T7 construct: membrane species from rat submaxillary glands (rat of Wistar breed) are prepared; from tissue; host or cells: rat (Wistar) submaxillary gland membranes
T7 sequence (P43140 1-466): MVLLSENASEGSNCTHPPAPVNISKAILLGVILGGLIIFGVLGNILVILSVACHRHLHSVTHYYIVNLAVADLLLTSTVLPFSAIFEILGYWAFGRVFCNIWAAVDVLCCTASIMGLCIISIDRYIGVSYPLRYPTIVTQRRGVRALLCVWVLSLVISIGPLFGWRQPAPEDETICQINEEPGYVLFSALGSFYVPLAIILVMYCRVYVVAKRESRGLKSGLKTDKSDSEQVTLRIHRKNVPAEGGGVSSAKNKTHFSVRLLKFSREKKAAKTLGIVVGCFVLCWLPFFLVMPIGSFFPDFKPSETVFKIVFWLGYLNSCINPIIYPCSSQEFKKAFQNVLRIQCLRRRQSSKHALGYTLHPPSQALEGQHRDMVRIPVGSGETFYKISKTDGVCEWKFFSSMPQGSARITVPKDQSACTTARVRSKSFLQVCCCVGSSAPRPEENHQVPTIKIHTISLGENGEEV
Nature of the experiment: radioligand binding to adrenergic receptor α1A ([3H] Prazosin). Particulars: 10 μM ligand. As to the method: Determination of investigated compounds' binding to α1A receptor was carried out according to the method described in [Michel A D, Loury D N and Whiting R l. Identification of a single α1A-adrenoceptor corresponding to the α1A-subtype in rat submaxillary gland. Br J. Pharmacol. 98:883-889, 1989]. […] Prazosin is used as positive control.

A further experiment concerns the target T8, human α1D receptor (Homo sapiens, UniProt P25100).
T8 construct: expressed in transfected cells; host or cells: HEK-293
T8 sequence (P25100 1-572): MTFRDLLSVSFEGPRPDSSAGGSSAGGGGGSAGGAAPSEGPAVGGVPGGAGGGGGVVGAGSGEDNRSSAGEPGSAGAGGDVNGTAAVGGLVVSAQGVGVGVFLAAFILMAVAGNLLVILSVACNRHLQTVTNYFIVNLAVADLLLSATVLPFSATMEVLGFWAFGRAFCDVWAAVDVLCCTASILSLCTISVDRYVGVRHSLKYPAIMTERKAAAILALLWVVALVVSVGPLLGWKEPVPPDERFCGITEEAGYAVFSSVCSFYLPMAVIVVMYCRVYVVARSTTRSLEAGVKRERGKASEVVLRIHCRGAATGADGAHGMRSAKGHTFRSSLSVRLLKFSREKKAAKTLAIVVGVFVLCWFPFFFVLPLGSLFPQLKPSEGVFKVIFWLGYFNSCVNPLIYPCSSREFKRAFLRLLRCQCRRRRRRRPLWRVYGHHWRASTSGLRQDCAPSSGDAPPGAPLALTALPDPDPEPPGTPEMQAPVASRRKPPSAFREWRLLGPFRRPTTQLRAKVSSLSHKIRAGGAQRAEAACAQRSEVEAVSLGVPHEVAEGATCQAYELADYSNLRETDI
The experiment can be described thus: radioligand binding to adrenergic receptor α1D ([3H] Prazosin). Particulars: 10 μM ligand. The source says:
6-C. […] For this purpose sDNA of human α1D receptor is expressed in HEK-293 cells, as it was described in [T L Theroux, T A Esbenshade, R D Peavy and K P Minneman. Coupling efficiencies of human alpha 1-adrenergic receptor subtypes: titration of receptor density and responsiveness with inducible and repressible expression vectors. Mol. Pharmacol.; 50: 1376-1387, 1996]. […] Prazosin is used as positive control.

Another experiment deals with T9, adrenergic receptor α1B (Rattus norvegicus, UniProt P15823).
T9 construct: membrane species from rat liver (rat of Wistar breed) are prepared; from tissue; host or cells: rat (Wistar) liver membranes
T9 sequence (P15823 1-515): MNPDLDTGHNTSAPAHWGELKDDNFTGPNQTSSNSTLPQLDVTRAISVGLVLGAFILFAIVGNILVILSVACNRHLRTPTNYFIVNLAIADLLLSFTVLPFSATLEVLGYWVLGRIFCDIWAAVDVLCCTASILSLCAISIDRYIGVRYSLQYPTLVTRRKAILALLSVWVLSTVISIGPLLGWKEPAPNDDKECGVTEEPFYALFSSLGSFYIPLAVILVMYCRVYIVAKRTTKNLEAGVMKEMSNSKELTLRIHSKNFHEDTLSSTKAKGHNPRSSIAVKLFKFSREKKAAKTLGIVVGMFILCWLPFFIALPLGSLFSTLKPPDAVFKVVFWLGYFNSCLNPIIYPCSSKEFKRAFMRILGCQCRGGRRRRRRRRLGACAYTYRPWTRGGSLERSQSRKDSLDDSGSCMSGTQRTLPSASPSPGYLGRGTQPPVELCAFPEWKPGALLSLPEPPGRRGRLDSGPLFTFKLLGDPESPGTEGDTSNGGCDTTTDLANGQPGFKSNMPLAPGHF
Nature of the experiment: radioligand binding to adrenergic receptor α1B ([3H] Prazosin). Particulars: 10 μM ligand. The source says: Species heterogeneity of hepatic α1A-, α1B-, and α1C-subtypes. Biochem Biophys Res Commun. 186:760-7676 1992]. […] Prazosin is used as positive control.

For another experiment, the target named is T10, human α2A receptor (Homo sapiens, UniProt P08913).
T10 construct: expressed in transfected cells; host or cells: Sf9
T10 sequence (P08913 1-465): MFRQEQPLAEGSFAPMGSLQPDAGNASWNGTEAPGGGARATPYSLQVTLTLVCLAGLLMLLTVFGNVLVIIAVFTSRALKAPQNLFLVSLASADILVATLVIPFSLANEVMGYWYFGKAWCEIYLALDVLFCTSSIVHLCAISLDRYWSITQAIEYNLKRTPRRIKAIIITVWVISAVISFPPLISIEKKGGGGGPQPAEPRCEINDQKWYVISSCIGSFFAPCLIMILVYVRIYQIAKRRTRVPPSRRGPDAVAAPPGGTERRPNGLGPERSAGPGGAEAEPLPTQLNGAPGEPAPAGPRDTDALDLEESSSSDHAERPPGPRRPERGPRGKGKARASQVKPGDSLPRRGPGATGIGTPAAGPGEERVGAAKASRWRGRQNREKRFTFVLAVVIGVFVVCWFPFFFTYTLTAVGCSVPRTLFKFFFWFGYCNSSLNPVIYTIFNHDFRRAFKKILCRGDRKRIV
The experiment can be described thus: radioligand binding to adrenergic receptor α2A ([3H] MK-912). Particulars: 10 μM ligand. The source says:
J Pharmacol ExpTher. […] Yohimbine is used as positive control.

Structures can show the parent of a compound that is named as a salt.

T1 sequence (P41595 whole entry): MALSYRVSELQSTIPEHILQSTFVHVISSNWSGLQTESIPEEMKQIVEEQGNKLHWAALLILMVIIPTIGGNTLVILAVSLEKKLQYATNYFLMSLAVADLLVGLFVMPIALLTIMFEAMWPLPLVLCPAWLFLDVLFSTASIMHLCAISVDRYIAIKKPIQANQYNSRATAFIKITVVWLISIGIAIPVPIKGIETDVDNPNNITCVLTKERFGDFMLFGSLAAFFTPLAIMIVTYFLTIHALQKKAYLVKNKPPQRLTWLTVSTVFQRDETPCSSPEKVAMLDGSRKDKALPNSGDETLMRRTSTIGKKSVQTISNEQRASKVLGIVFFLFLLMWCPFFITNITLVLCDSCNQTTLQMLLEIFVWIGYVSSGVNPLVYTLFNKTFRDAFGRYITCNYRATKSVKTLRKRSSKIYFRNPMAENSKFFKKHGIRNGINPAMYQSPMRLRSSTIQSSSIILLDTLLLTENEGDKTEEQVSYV
T3 sequence (P28223 whole entry): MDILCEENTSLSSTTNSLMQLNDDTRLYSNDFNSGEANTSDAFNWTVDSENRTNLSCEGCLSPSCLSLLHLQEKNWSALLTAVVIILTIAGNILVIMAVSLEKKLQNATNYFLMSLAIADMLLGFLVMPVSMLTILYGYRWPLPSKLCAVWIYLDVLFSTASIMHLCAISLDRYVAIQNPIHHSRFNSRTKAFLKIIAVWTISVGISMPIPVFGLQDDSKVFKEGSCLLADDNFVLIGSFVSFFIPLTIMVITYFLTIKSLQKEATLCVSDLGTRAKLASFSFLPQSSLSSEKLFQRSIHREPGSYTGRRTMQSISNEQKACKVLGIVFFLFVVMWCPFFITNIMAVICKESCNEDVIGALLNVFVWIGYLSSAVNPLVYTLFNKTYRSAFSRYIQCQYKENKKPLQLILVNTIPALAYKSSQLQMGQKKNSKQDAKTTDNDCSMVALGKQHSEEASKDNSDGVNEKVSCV
T4 sequence (P34969 whole entry): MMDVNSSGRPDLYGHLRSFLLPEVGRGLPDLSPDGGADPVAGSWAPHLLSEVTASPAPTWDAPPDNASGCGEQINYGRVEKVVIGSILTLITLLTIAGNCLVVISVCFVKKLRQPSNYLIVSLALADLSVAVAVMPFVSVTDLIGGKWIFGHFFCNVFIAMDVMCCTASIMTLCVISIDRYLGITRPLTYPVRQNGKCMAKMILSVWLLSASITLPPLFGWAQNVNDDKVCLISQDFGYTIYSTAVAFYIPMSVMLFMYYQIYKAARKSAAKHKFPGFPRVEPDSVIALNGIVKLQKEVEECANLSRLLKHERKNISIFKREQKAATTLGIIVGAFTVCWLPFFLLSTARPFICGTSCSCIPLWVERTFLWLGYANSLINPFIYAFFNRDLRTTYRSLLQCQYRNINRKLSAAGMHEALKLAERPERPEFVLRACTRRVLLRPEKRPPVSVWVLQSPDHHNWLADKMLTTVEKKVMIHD
T6 sequence (P50406 whole entry): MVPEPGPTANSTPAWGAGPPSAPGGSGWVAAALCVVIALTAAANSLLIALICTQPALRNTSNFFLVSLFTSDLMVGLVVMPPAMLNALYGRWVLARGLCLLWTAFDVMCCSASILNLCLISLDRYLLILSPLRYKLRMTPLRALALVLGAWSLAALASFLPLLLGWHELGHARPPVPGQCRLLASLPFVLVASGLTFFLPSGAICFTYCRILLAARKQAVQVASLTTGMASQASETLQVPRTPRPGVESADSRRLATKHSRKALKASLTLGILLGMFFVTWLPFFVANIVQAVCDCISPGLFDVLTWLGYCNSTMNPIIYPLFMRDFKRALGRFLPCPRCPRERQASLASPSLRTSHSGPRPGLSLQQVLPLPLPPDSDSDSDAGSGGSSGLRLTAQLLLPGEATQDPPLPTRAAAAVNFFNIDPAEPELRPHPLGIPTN

As to `Cc1ccc2c(c1)c1c(n2CCc2ccccc2)CCN(C)C1.Cl` [1.1.2(1-2)•HCl, 2,8-dimethyl-5-phenethyl-1,2,3,4-tetrahydro-1H-pyrido[4,3-b]indole hydrochloride], in [1], the IC50 turned out to be 16.6 nM, the Ki stood at 10.6 nM, the “nH 5-HT2B” value was 0.868 and the 5-HT2B % inhibition is on record as 100%. Also, the 5-HT1A % inhibition at recombinant human 5-HT1A is reported as 84%. Further, the “imidazoline I2 receptor % inhibition” value in the experiment with imidazoline receptor I2 stood at 93%.
For `Cc1ccc2c(c1)c1c(n2CCc2ccccc2)CCCN(C)C1` [1.2.2(1-2)•HCl], the 5-HT2A % inhibition in [2] is given as 89%. Besides, the 5-HT2B % inhibition in [1] turned out to be 84%. Moreover, the 5-HT1A % inhibition at recombinant human 5-HT1A is 20%. The 5-HT7 % inhibition on human 5-HT7 receptor amounted to 97%.
Turning to `Cc1ccc2c(c1)c1c(n2CCc2ccccn2)CCCN(C)C1` [1.2.2(2-2)], in experiment [1], the 5-HT2B % inhibition was 10%. Also, the figures for the inhibition at 1 µM (at recombinant human 5-HT1A; in experiment [3] (ligand concentration 1 μM); in [4]) were 28%, 94% and 88%, respectively. In addition, the “imidazoline I2 receptor % inhibition” value with imidazoline receptor I2 came out at 80%. Also, the 5-HT2C % inhibition in experiment [3] (10 μM ligand) stood at 51%.
As for `Cc1ccc2c(c1)c1c(n2CCc2cccnc2)CCCN(C)C1.Cl.Cl` [1.2.2(3-2)•2HCl], the “α-Adrenoceptor α1A, % inhibition” value on adrenergic receptor α1A is 61%. In addition, the inhibition at 1 µM at recombinant human 5-HT1A stood at 6%. On human α1D receptor, the “α-Adrenoceptor α1D, % inhibition” value worked out at 60%. For the same compound, on adrenergic receptor α1B, the “α-Adrenoceptor α1B, % inhibition” value is on record as 75%. The “imidazoline I2 receptor % inhibition” value with imidazoline receptor I2 was 63%. Besides, the “α-Adrenoceptor α2A, % inhibition” value at human α2A receptor worked out at 71%.
